Values quoted from earlier work in US6046167A, “Peptide YY analogs” (University of Cincinnati, priority 1998, dated 2000).

Test system: rat small intestine
Conditions: voltage clamped preparations of rat small intestine; literature comparison

Q: Which antisecretory potency does the source give for “PYY: 36-residue peptide amide isolated originally from porcine intestine [Peptide YY]” here?
A: greater antisecretory potency than NPY
